Experimental data reported in patent US5304379A, “Method for reducing sensitization or irritation in transdermal drug delivery and means therefor” (priority 1992, dated 1994).

Columns and labels:
[1] = system: propranolol metabolism in human keratinocytes; conditions: tritiated propranolol 1.5×10^-7 M, several days, metabolites by TLC, vs control incubation without tranylcypromine
Experimental: At the end of several days, the metabolites resulting from propranolol ,metabolism were identified and quantitated by thin layer chromatography.
Human keratinocytes were incubated in tritiated propranolol (12.5 Ci/mmole, final concentration 1.5×10^-7 M) and a range of concentration of each phenyl alcohol. Quadruplicates were used at each concentration. At six days, the metabolites resulting from propranolol deamination were extracted (ether, pH of 3) and the radioactivity of the extract was measured by scintillation counting. The concentration of each phenyl alcohol studied, which inhibits 50 percent of propranolol metabolism (MI50) was estimated by means of the Litchfield and Wilcoxon method.

[2] = Patch test (elicitation) in a human subject sensitized to propranolol
Experimental: A human subject suspected of being sensitized to propranolol was patch tested for 16 hours with 0.5% propranolol in a 2% hydroxyethyl cellulose (HEC) gel buffered to a pH of 8.5 with 0.05M TrisHC1.
The same subject was patch tested several days later with the following compositions in 2% HEC gel buffered to a pH of 8.5 with 0.05M TrisHC1: 0.5% propranolol; 0.5% tranylcypromine; 10% 2-phenyl-1-ethanol; 0.5% propranolol with 0.5% tranylcypromine; and 0.5% propranolol with 10% 2-phenyl-1-ethanol. Each composition was placed simultaneously at different sites on the subject's volar forearm.

[3] = system: monoamine oxidase-dependent tetracaine metabolism; test: In vitro metabolism of tetracaine (methods of the propranolol studies)
[4] = Patch test (elicitation) in human subjects sensitized to tetracaine, erythema by Minolta Chromameter; type: in vivo; conditions: 21 hours after removal
Experimental: Testing occurred over a period of several weeks where a positive control composition was placed on the skin along with one of the tetracaine/phenyl alcohol compositions and the intensity of the skin reaction obtained, was observed. This was repeated on different areas of the arm until all of the compositions were tested. Each formulation remained on the skin for a period of three hours and the reactions were observed during the 16-24 hour period after removal of the formulation. Erythema or redness of the reaction site was quantitated with a Minolta Chromameter. In all instances, the intensity of the reaction caused by the tetracaine/phenyl alcohol composition, was less than that caused by tetracaine alone (positive control). Thus it was established that the presence of phenyl alcohols reduced the elicitation reaction as compared to the 2% tetracaine gel.
The best results were obtained using 2-phenyl-1-ethanol and 3-phenyl-1-propanol. On a scale of 0-100, with 0 being 0% inhibition (2% tetracaine gel/positive control) and 100 being 100% inhibition (placebo gel/negative control), the following data was obtained 21 hours after removal of the formulations: […]

[5] = Induction of contact sensitization by patches in groups of 100 human subjects; type: in vivo; conditions: tetracaine/2-phenyl-1-ethanol patches vs tetracaine-only patches, 100 subjects each
Experimental: The components were blended in an internal mixing bowl at 100° C. and after approximately one hour, the mixture was extruded between two release substrates. One substrate was peeled away and a backing member was applied in its place.
Similar patches were manufactured without the presence of 2-phenyl-1-ethanol.
Two groups of 100 human subjects each were then tested. They were each tested by application of a system, for a three hour duration, once every 8 weeks.
100 subjects were given the patches containing only tetracaine. […] The other 100 subjects were given the patches containing both tetracaine and 2-phenyl-1-ethanol.

[6] = system: monoamine oxidase activity; type: cell-based
Description: Therefore, the metabolism of chlorpheniramine can also be inhibited in the skin or mucosa, by the addition of metabolic modulators such as the phenyl alcohols disclosed with reference to propranolol.

[7] = 0.5% alone in 2% HEC gel pH 8.5, volar forearm, one day later, propranolol-sensitized subject
[8] = 2.5 weight % inhibitor with 2% tetracaine gel
[9] = 5 weight % inhibitor with 2% tetracaine gel
[10] = 10 weight % inhibitor with 2% tetracaine gel

N[C@@H]1C[C@H]1c1ccccc1 (relative stereo) [tranylcypromine]
inhibition of propranolol metabolism [1]: inhibited | skin reaction at patch site [2, 7]: No reaction | inhibition of monoamine oxidase-dependent tetracaine metabolism [3]: could be inhibited

OCCc1ccccc1 [2-phenyl-1-ethanol]
Percent Inhibition of Reaction [4, 8]: 52% | Percent Inhibition of Reaction [4, 9]: 52% | Percent Inhibition of Reaction [4, 10]: 77% | reduction of the incidence of sensitization [5]: about 70% | skin reaction at patch site ([2]; human, in vivo, pH 8.5): No reaction | inhibition of monoamine oxidase-dependent tetracaine metabolism [3]: could be inhibited

OCCCc1ccccc1 [3-Phenyl-1-propanol, 3-phenyl-1-propanol]
Percent Inhibition of Reaction [4, 8]: 37% | Percent Inhibition of Reaction [4, 9]: 100% | Percent Inhibition of Reaction [4, 10]: 100%

CN(C)CCC(c1ccc(Cl)cc1)c1ccccn1 (stereo not shown) [chlorpheniramine]
dependence of in vitro skin metabolism on monoamine oxidase activity [6]: largely dependent upon monoamine oxidase activity

CC(C)NCC(O)COc1cccc2ccccc12 (stereo not shown) [propranolol]
skin reaction at patch site [2, 7]: strong reaction | skin reaction after patch test ([2]; 0.5% in 2% HEC gel pH 8.5, 16 hours patch, one to two days later): a reaction which was characteristic of a contact sensitization reaction

CCCCNc1ccc(C(=O)OCCN(C)C)cc1 [tetracaine]
portion of metabolism that is monoamine oxidase-dependent [3]: 25%
